PubChem BioAssay AID270 (DTP/NCI, 2004)
Several values for one entry are separate records, joined by “and”; a condition that tells them apart may be missing. Equal values may be shown once. Inconclusive results are not listed.

Test system: BDF1 mice, s.c. Lewis lung carcinoma, T/C %
Experiment: NCI In Vivo Anticancer Drug Screen. Data for tumor model Lewis Lung Carcinoma (subcutaneous) in B6D2F1 (BDF1) mice
Method in brief: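 Transplanted tumors grown in mice; compound vs vehicle dosing; endpoint survival or tumor size; ratio T/C.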

`CC(C)[C@]1(O)CC[C@H]2[C@@H]3CCc4cc(O)ccc4[C@H]3CC[C@@]21C` was tested. Which T/C (endpoint: mean tumor weight, dose: 2.5 mg/kg/injection, schedule: Q01DX011 (sc), vehicle: saline, higher = larger tumour) did it give?
Its T/C is 87 % of control.

And the T/C (endpoint: mean tumor weight, dose: 5.0 mg/kg/injection, schedule: Q01DX011 (sc), vehicle: saline, higher = larger tumour)?
The T/C was 68 % of control.

And the T/C (endpoint: mean tumor weight, dose: 10.0 mg/kg/injection, schedule: Q01DX011 (sc), vehicle: saline, higher = larger tumour)?
Its T/C is 80 % of control.

And the T/C (endpoint: mean tumor weight, dose: 10.0 mg/kg/injection, schedule: Q01DX011 (sc), vehicle: steriod suspending solution, higher = larger tumour)?
The T/C was 51 % of control.

And the T/C (endpoint: mean tumor weight, dose: 20.0 mg/kg/injection, schedule: Q01DX011 (sc), vehicle: steriod suspending solution, higher = larger tumour)?
Its T/C is 65 % of control.

And the T/C (endpoint: mean tumor weight, dose: 40.0 mg/kg/injection, schedule: Q01DX011 (sc), vehicle: steriod suspending solution, higher = larger tumour)?
The T/C was 36 % of control.

What about the T/C (endpoint: mean tumor weight, dose: 80.0 mg/kg/injection, schedule: Q01DX011 (sc), vehicle: steriod suspending solution, higher = larger tumour) of the same compound?
Its T/C is 55 % of control.

For `CNC(=O)N(C)c1cc(N(C)C)nc(OC)n1`, which T/C (endpoint: median survival time, dose: 5.0 mg/kg/injection, schedule: Q01DX009 (ip), vehicle: Klucel (hydroxypropylcellulose) (HPC), higher = longer survival) is on record?
The T/C was 98 % of control.

What about the T/C (endpoint: median survival time, dose: 10.0 mg/kg/injection, schedule: Q01DX009 (ip), vehicle: Klucel (hydroxypropylcellulose) (HPC), higher = longer survival) of the same compound?
The T/C was 115 % of control.

`O=C1NC2(CCCCC2)C(=O)N1CCN(CCCl)CCCl` was tested. Which T/C (endpoint: median survival time, dose: 1.5 mg/kg/injection, schedule: Q01DX009 (ip), vehicle: Klucel (hydroxypropylcellulose) (HPC), higher = longer survival) did it give?
The T/C was 98 % of control.

What about the T/C (endpoint: median survival time, dose: 1.5 mg/kg/injection, schedule: Q01DX009 (ip), vehicle: saline, higher = longer survival) of the same compound?
Its T/C is 91 % of control.

And the T/C (endpoint: median survival time, dose: 1.56 mg/kg/injection, schedule: Q01DX009 (ip), vehicle: saline, higher = longer survival)?
Its T/C is 87 % of control and 93 % of control.

And the T/C (endpoint: median survival time, dose: 3.0 mg/kg/injection, schedule: Q01DX009 (ip), vehicle: Klucel (hydroxypropylcellulose) (HPC), higher = longer survival)?
The T/C was 104 % of control.

And the T/C (endpoint: median survival time, dose: 3.0 mg/kg/injection, schedule: Q01DX009 (ip), vehicle: saline, higher = longer survival)?
Its T/C is 89 % of control.

What about the T/C (endpoint: median survival time, dose: 3.12 mg/kg/injection, schedule: Q01DX009 (ip), vehicle: saline, higher = longer survival) of the same compound?
Its T/C is 100 % of control.

And the T/C (endpoint: median survival time, dose: 6.0 mg/kg/injection, schedule: Q01DX009 (ip), vehicle: saline, higher = longer survival)?
Its T/C is 106 % of control.

What about the T/C (endpoint: median survival time, dose: 6.25 mg/kg/injection, schedule: Q01DX009 (ip), vehicle: saline, higher = longer survival) of the same compound?
Its T/C is 111 % of control.

What about the T/C (endpoint: median survival time, dose: 12.0 mg/kg/injection, schedule: Q01DX009 (ip), vehicle: saline, higher = longer survival) of the same compound?
The T/C was 89 % of control.

What about the T/C (endpoint: median survival time, dose: 12.5 mg/kg/injection, schedule: Q01DX009 (ip), vehicle: saline, higher = longer survival) of the same compound?
The T/C was 97 % of control.

Which results are given for `O=C1C=CC2(CCC23C=CC(=O)O3)O1` (configuration not stated)?
T/C (endpoint: mean tumor weight, dose: 13.0 mg/kg/injection, schedule: Q01DX011 (ip), vehicle: saline, higher = larger tumour): 102 % of control; T/C (endpoint: mean tumor weight, dose: 30.0 mg/kg/injection, schedule: Q01DX011 (ip), vehicle: saline, higher = larger tumour): 85 % of control; T/C (endpoint: mean tumor weight, dose: 45.0 mg/kg/injection, schedule: Q01DX011 (ip), vehicle: saline, higher = larger tumour): 80 % of control and 83 % of control; T/C (endpoint: mean tumor weight, dose: 65.0 mg/kg/injection, schedule: Q01DX011 (ip), vehicle: saline, higher = larger tumour): 66 % of control

With `OCC1OC(Oc2ccc(O)cc2)C(O)C(O)C1O` (configuration not stated) as the compound, how does the T/C (endpoint: median survival time, dose: 50.0 mg/kg/injection, schedule: Q01DX009 (ip), vehicle: saline, higher = longer survival) read?
The T/C was 95 % of control.

What about the T/C (endpoint: median survival time, dose: 100.0 mg/kg/injection, schedule: Q01DX009 (ip), vehicle: saline, higher = longer survival) of the same compound?
The T/C was 106 % of control.

What about the T/C (endpoint: median survival time, dose: 200.0 mg/kg/injection, schedule: Q01DX009 (ip), vehicle: saline, higher = longer survival) of the same compound?
Its T/C is 92 % of control.

And the T/C (endpoint: median survival time, dose: 400.0 mg/kg/injection, schedule: Q01DX009 (ip), vehicle: saline, higher = longer survival)?
Its T/C is 106 % of control.

How did the T/C (endpoint: median survival time, dose: 0.5 mg/kg/injection, schedule: Q01DX009 (ip), vehicle: saline, higher = longer survival) turn out when `CCCCCCCCCCCC(c1ccccc1)[N+](C)(C)C` (configuration not stated) was run?
The T/C was 102 % of control.

What about the T/C (endpoint: median survival time, dose: 1.0 mg/kg/injection, schedule: Q01DX009 (ip), vehicle: saline, higher = longer survival) of the same compound?
Its T/C is 96 % of control.

And the T/C (endpoint: median survival time, dose: 2.0 mg/kg/injection, schedule: Q01DX009 (ip), vehicle: saline, higher = longer survival)?
The T/C was 93 % of control.

Which results are given for `COC1CCC(NC(=O)N(CCCl)N=O)CC1` (configuration not stated)?
T/C (endpoint: median survival time, dose: 16.0 mg/kg/injection, schedule: Q01DX001 (ip), vehicle: saline with Tween-80, higher = longer survival): 121 % of control; T/C (endpoint: median survival time, dose: 82.0 mg/kg/injection, schedule: Q01DX001 (ip), vehicle: saline with Tween-80, higher = longer survival): 111 % of control

For `C=C(C)C12CC(COC(=O)c3ccccc3)C34OC5(OC1C3C1OC1(CO)C(O)C1(O)C(OC(=O)c3ccccc3)C(C)C(C(C)CCCCCCC5O)C14)O2` (configuration not stated), which T/C (endpoint: median survival time, dose: 3.8 micrograms/kg/injection, schedule: Q01DX009 (ip), vehicle: saline, higher = longer survival) is on record?
Its T/C is 107 % of control.

What about the T/C (endpoint: median survival time, dose: 7.5 micrograms/kg/injection, schedule: Q01DX009 (ip), vehicle: saline, higher = longer survival) of the same compound?
Its T/C is 100 % of control.

What does the source list for `NC(=NCc1ccccc1)c1ccc(N=C(N)c2ccc(C(N)=Nc3ccc(C(N)=NCc4ccccc4)cc3)cc2)cc1`?
T/C (endpoint: median survival time, dose: 2.5 mg/kg/injection, schedule: Q01DX009 (ip), vehicle: saline, higher = longer survival): 113 % of control; T/C (endpoint: median survival time, dose: 5.0 mg/kg/injection, schedule: Q01DX009 (ip), vehicle: saline, higher = longer survival): 107 % of control; T/C (endpoint: median survival time, dose: 10.0 mg/kg/injection, schedule: Q01DX009 (ip), vehicle: saline, higher = longer survival): 111 % of control
